Experimental data as given in patent publication US5500423A, “5,6-dihydro-4H-imidazo[4,5,1-ij]quinolines” (Hoechst-Roussel Pharmaceuticals Inc., priority 1994, dated 1996).
Where a name gives a salt, the structure may show the parent alone. Read-outs that look alike come from different tables or passages of the source.

Tested on: mice
Assay: phenyl-p-quinone writhing assay in mice (analgesia)
Assay type: in vivo
Conditions: Mus musculus, sc, read-out: % Inhibition of Writhing; for inhibition in vivo at 20 mg/kg: 0.5 h
[1] = 20 mg/kg subcutaneous, 30 minutes before injection of phenylquinone, mice

Compound	inhibition in vivo at 20 mg/kg [1]	other results
CC(=O)N1CCC(c2nc3cccc4c3n2CCC4)CC1 [1-Acetyl-4-[5,6-dihydro-4H-imidazo[4,5,1-ij]quinolin-2-yl]piperidine]	51%	–
c1cc2c3c(c1)nc(C1CCNCC1)n3CCC2 [2-(4-Piperidinyl)-5,6-dihydro-4H-imidazo[4,5,1-ij]quinoline fumarate]	–	inhibition in vivo at 20 mg/kg: 31%
Fc1ccc(C(CCCN2CCN(c3nc4cccc5c4n3CCC5)CC2)c2ccc(F)cc2)cc1 [4-[4,4-Bis(4-fluorophenyl)-butyl]-1-piperazinyl-5,6-dihydro-4H-imidazo[4,5,1-ij]quinoline]	43%	–
c1cc2c3c(c1)nc(N1CCNCC1)n3CCC2 [5,6-Dihydro-2-(1-piperazinyl)-4H-imidazo[4,5,1-ij]quinoline dihydrochloride]	–	inhibition in vivo at 20 mg/kg: 57%
c1cc2c3c(c1)nc(N1CCCCC1)n3CCC2 [5,6-Dihydro-2-(1-piperidinyl)-4H-imidazo[4,5.1-ij]quinoline hydrochloride]	68%	–
CN(C)C1CCN(c2nc3cccc4c3n2CCC4)CC1 [5,6-Dihydro-2-(4-dimethylamino-1-piperidinyl)-4H-imidazo[4,5,1-ij]quinolinefumarate]	48%	–
c1ccc(CCN2CCN(c3nc4cccc5c4n3CCC5)CC2)cc1 [5,6-Dihydro-2-(4-phenylethyl-1-piperazinyl)-4H-imidazo[4,5,1-ij]quinoline]	45%	–
c1cc2c3c(c1)nc(N1CCSCC1)n3CCC2 [5,6-Dihydro-2-(4-thiomorpholinyl)-4H-imidazo[4,5,1-ij]quinoline hydrochloride]	53%	–
CCOC(=O)N1CCN(c2nc3cccc4c3n2CCC4)CC1 [Ethyl-4-[5,6-dihydro-4H-imidazo[4,5,1-ij]quinolin-2-yl]-1-piperazinecarboxylate fumarate]	47%	–
CCC(=O)O[C@](Cc1ccccc1)(c1ccccc1)[C@H](C)CN(C)C [propoxyphene, reference compound]	–	inhibition in vivo at 5 mg/kg: 19%
